From the NIST ThermoML archive (doi:10.1021/je7002447)
± gives the expanded uncertainty stated by the source.

Legend:
[1] = excess molar enthalpy (molar enthalpy of mixing); xn = mol fraction of the nth substance listed; settings: 298.15 K, 101.3 kPa, Liquid, Flow calorimetry
[2] = 298.15 K; 101.33 kPa; Liquid

ClCCCc1ccccc1 [(3-chloropropyl)benzene] + c1ccccc1
[1]
Settings	excess molar enthalpy [kcal/mol]
x1 = 0.0913	-0.00229 ± 0.000215
x1 = 0.1843	-0.00478 ± 0.000287
x1 = 0.2316	-0.00547 ± 0.000311
x1 = 0.3113	-0.00717 ± 0.000359
x1 = 0.376	-0.00822 ± 0.000406
x1 = 0.4455	-0.00868 ± 0.000406
x1 = 0.5466	-0.00868 ± 0.000406
x1 = 0.6164	-0.0082 ± 0.000406
x1 = 0.7068	-0.00705 ± 0.000359
x1 = 0.7834	-0.00569 ± 0.000311
x1 = 0.8282	-0.00476 ± 0.000287
x1 = 0.8577	-0.00416 ± 0.000263

ClCc1ccccc1 [(chloromethyl)benzene]
Settings	mass density [kg/m3]
[2]	1094.82 ± 0.65

ClCc1ccccc1 [(chloromethyl)benzene] + CCCCc1ccccc1
[1]
Settings	excess molar enthalpy [kcal/mol]
x1 = 0.1194	0.033 ± 0.00139
x1 = 0.145	0.0402 ± 0.00167
x1 = 0.2028	0.0481 ± 0.00198
x1 = 0.2532	0.0596 ± 0.00239
x1 = 0.3114	0.0663 ± 0.00263
x1 = 0.4041	0.073 ± 0.00311
x1 = 0.5043	0.0762 ± 0.00311
x1 = 0.5756	0.0752 ± 0.00311
x1 = 0.6439	0.0712 ± 0.00287
x1 = 0.7307	0.0619 ± 0.00263
x1 = 0.7834	0.0522 ± 0.00215
x1 = 0.8444	0.0413 ± 0.00172
x1 = 0.8906	0.0294 ± 0.00124
x1 = 0.9313	0.0204 ± 0.000884

ClCc1ccccc1 [(chloromethyl)benzene] + CCCc1ccccc1
[1]
Settings	excess molar enthalpy [kcal/mol]
x1 = 0.1315	0.0266 ± 0.00112
x1 = 0.2325	0.038 ± 0.00158
x1 = 0.3124	0.0468 ± 0.00194
x1 = 0.3772	0.0499 ± 0.00206
x1 = 0.4468	0.0527 ± 0.00217
x1 = 0.5478	0.0541 ± 0.00225
x1 = 0.645	0.0484 ± 0.00201
x1 = 0.7079	0.0443 ± 0.00184
x1 = 0.7842	0.0344 ± 0.00143
x1 = 0.8289	0.0245 ± 0.00103
x1 = 0.8791	0.0204 ± 0.000884
x1 = 0.9065	0.0154 ± 0.000669

ClCc1ccccc1 [(chloromethyl)benzene] + CCc1ccccc1
[1]
Settings	excess molar enthalpy [kcal/mol]
x1 = 0.0962	0.0125 ± 0.000574
x1 = 0.1664	0.0181 ± 0.000789
x1 = 0.2102	0.0209 ± 0.000884
x1 = 0.2853	0.0242 ± 0.00103
x1 = 0.4151	0.0281 ± 0.0012
x1 = 0.5156	0.0284 ± 0.0012
x1 = 0.5866	0.0278 ± 0.00117
x1 = 0.6804	0.025 ± 0.00105
x1 = 0.7395	0.022 ± 0.000932
x1 = 0.8098	0.018 ± 0.000789
x1 = 0.8646	0.0136 ± 0.000598
x1 = 0.8949	0.00999 ± 0.000478

ClCc1ccccc1 [(chloromethyl)benzene] + Cc1ccccc1
[1]
Settings	excess molar enthalpy [kcal/mol]
x1 = 0.1036	0.00576 ± 0.000311
x1 = 0.1877	0.00925 ± 0.00043
x1 = 0.2574	0.0113 ± 0.000526
x1 = 0.3161	0.0128 ± 0.000574
x1 = 0.3813	0.014 ± 0.000621
x1 = 0.4803	0.0143 ± 0.000645
x1 = 0.581	0.0133 ± 0.000598
x1 = 0.649	0.0124 ± 0.00055
x1 = 0.735	0.0109 ± 0.000502
x1 = 0.7871	0.00944 ± 0.000454
x1 = 0.8809	0.00571 ± 0.000311
x1 = 0.9024	0.00511 ± 0.000287

ClCc1ccccc1 [(chloromethyl)benzene] + Clc1ccccc1
[1]
Settings	excess molar enthalpy [kcal/mol]
x2 = 0.1118	0.0144 ± 0.000645
x2 = 0.2012	0.0215 ± 0.000908
x2 = 0.2742	0.0245 ± 0.00103
x2 = 0.335	0.0271 ± 0.00115
x2 = 0.4304	0.0287 ± 0.00122
x2 = 0.5312	0.0272 ± 0.00115
x2 = 0.6018	0.0253 ± 0.00108
x2 = 0.6939	0.022 ± 0.000932
x2 = 0.7514	0.0187 ± 0.000813
x2 = 0.8193	0.015 ± 0.000669
x2 = 0.858	0.0123 ± 0.00055

c1ccccc1 [benzene]
Settings	mass density [kg/m3]
[2]	873.58 ± 0.17

CCCCc1ccccc1 [butylbenzene]
Settings	mass density [kg/m3]
[2]	856.29 ± 0.68

CCCCc1ccccc1 [butylbenzene] + Clc1ccccc1
[1]
Settings	excess molar enthalpy [kcal/mol]
x2 = 0.133	-0.00973 ± 0.000454
x2 = 0.1609	-0.0115 ± 0.000526
x2 = 0.2036	-0.0139 ± 0.000621
x2 = 0.2772	-0.0177 ± 0.000765
x2 = 0.3383	-0.0199 ± 0.00086
x2 = 0.4341	-0.0219 ± 0.000932
x2 = 0.535	-0.0209 ± 0.000884
x2 = 0.6054	-0.0194 ± 0.000837
x2 = 0.6971	-0.0164 ± 0.000717
x2 = 0.8036	-0.0133 ± 0.000598
x2 = 0.902	-0.00822 ± 0.000406

Clc1ccccc1 [chlorobenzene]
Settings	mass density [kg/m3]
[2]	1101.17 ± 0.16

Clc1ccccc1 [chlorobenzene] + CCc1ccccc1
[1]
Settings	excess molar enthalpy [kcal/mol]
x1 = 0.1075	-0.0131 ± 0.000598
x1 = 0.1308	-0.0157 ± 0.000693
x1 = 0.1671	-0.0186 ± 0.000813
x1 = 0.2864	-0.0276 ± 0.00117
x1 = 0.3111	-0.029 ± 0.00122
x1 = 0.4453	-0.0335 ± 0.00141
x1 = 0.4745	-0.0346 ± 0.00143
x1 = 0.5463	-0.0341 ± 0.00143
x1 = 0.6436	-0.0301 ± 0.00127
x1 = 0.7625	-0.0261 ± 0.0011
x1 = 0.8784	-0.015 ± 0.000669
x1 = 0.9233	-0.00956 ± 0.000454

Clc1ccccc1 [chlorobenzene] + Cc1ccccc1
[1]
Settings	excess molar enthalpy [kcal/mol]
x1 = 0.1156	-0.0126 ± 0.000574
x1 = 0.2072	-0.0198 ± 0.00086
x1 = 0.2584	-0.0226 ± 0.000956
x1 = 0.3433	-0.0261 ± 0.0011
x1 = 0.4107	-0.0272 ± 0.00115
x1 = 0.5111	-0.0274 ± 0.00115
x1 = 0.6106	-0.0256 ± 0.00108
x1 = 0.6765	-0.023 ± 0.00098
x1 = 0.807	-0.0161 ± 0.000693
x1 = 0.9127	-0.00798 ± 0.000382

Clc1ccccc1 [chlorobenzene] + c1ccccc1
[1]
Settings	excess molar enthalpy [kcal/mol]
x1 = 0.0804	-0.000502 ± 0.000191
x1 = 0.1272	-0.000669 ± 0.000191
x1 = 0.1794	-0.000932 ± 0.000191
x1 = 0.2258	-0.0011 ± 0.000191
x1 = 0.3043	-0.00122 ± 0.000191
x1 = 0.3684	-0.00131 ± 0.000191
x1 = 0.3962	-0.00139 ± 0.000191
x1 = 0.4666	-0.00136 ± 0.000191
x1 = 0.5384	-0.00129 ± 0.000191
x1 = 0.5675	-0.00131 ± 0.000191
x1 = 0.6363	-0.00117 ± 0.000191
x1 = 0.6999	-0.001 ± 0.000191
x1 = 0.7777	-0.00086 ± 0.000191
x1 = 0.8235	-0.000741 ± 0.000191
x1 = 0.8974	-0.000406 ± 0.000191

CCc1ccccc1 [ethylbenzene]
Settings	mass density [kg/m3]
[2]	862.55 ± 0.66

CCCc1ccccc1 [propylbenzene]
Settings	mass density [kg/m3]
[2]	857.62 ± 1.3

CCCc1ccccc1 [propylbenzene] + Clc1ccccc1
[1]
Settings	excess molar enthalpy [kcal/mol]
x2 = 0.1205	-0.0121 ± 0.00055
x2 = 0.1859	-0.0162 ± 0.000717
x2 = 0.2551	-0.0211 ± 0.000908
x2 = 0.3394	-0.0244 ± 0.00103
x2 = 0.4066	-0.0261 ± 0.0011
x2 = 0.4774	-0.0277 ± 0.00117
x2 = 0.5781	-0.0261 ± 0.0011
x2 = 0.6727	-0.0241 ± 0.00103
x2 = 0.7851	-0.0189 ± 0.000813
x2 = 0.8796	-0.0118 ± 0.000526
x2 = 0.9164	-0.00782 ± 0.000382

Cc1ccccc1 [toluene]
Settings	mass density [kg/m3]
[2]	862.19 ± 0.18
